Experimental data taken from ChEMBL document CHEMBL1201862, “PubChem BioAssay data set” (2004).
The source made the active and inactive calls.

Tests used:
[1] = HepG2 cell cytotoxicity, dose response, cytotoxicity control for Shn3 inhibitor project, CellTiter-Glo, cherry-picked (AID 624134); assay type: functional, cell-based
[2] = Shn3 3'UTR reporter inhibitors, dose response, cell-based, Clone20 osteoblasts, firefly luciferase, cherry-picked (AID 624132); assay type: functional;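 note: firefly luciferase luminescence from reporter carrying the Shn3 3'UTR in osteoblasts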
[3] = control 3'UTR Renilla luciferase suppression, dose response, counter-screen for Shn3 inhibitor project, cell-based, Clone20-Shn3RL, cherry-picked (AID 624133); assay type: functional
Vero = assay: cells; assay type: functional; details: Chlorocebus sabaeus
Protein skinhead-1 = target: T1, Protein skinhead-1 (Caenorhabditis elegans, UniProt P34707); assay type: functional
T1 sequence (P34707 whole entry): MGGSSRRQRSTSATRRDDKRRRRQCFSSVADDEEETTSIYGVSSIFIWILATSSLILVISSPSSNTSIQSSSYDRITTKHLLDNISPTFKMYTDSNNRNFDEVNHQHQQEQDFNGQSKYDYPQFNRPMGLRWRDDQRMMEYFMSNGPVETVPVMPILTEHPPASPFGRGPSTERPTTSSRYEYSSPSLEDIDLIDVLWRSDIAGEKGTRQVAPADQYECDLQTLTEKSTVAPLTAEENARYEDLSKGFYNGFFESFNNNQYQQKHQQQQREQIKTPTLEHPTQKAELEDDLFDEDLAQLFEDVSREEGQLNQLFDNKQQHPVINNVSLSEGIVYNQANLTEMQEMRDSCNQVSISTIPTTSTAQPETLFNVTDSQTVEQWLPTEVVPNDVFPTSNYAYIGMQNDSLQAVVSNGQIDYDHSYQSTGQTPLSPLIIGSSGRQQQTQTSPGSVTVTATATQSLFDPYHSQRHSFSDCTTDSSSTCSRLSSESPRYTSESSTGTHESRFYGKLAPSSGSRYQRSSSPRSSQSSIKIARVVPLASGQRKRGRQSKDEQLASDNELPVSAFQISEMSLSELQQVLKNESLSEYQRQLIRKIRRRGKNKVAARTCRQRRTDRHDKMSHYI

[4] = target: Peroxisome proliferator-activated receptor gamma/Nuclear receptor coactivator 2 (Homo sapiens, UniProt P37231); assay type: functional;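 note: agonist potency for raising coactivator recruitment to the receptor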
[5] = target: Peroxisome proliferator-activated receptor gamma/Nuclear receptor coactivator 1 (Homo sapiens, UniProt P37231); assay type: functional;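 note: agonist potency as compounds enhance coactivator SRC-1 recruitment to PPARgamma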
Sequence of Peroxisome proliferator-activated receptor gamma/Nuclear receptor coactivator 1 (P37231 whole entry): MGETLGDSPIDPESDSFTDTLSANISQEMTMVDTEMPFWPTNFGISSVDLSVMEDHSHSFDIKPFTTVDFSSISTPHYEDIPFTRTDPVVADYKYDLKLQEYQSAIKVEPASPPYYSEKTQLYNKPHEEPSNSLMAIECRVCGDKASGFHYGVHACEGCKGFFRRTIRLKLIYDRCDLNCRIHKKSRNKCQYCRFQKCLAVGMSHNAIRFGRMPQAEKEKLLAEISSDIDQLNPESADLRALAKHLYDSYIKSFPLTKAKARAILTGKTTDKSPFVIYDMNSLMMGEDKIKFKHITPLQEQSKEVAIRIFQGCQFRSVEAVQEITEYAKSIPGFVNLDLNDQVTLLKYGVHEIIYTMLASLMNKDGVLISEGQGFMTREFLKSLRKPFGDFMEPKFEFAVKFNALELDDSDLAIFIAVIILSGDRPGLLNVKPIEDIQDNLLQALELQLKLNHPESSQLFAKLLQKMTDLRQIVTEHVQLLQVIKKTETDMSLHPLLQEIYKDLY
Sequence of Peroxisome proliferator-activated receptor gamma/Nuclear receptor coactivator 1 (Q15788 whole entry, further chain): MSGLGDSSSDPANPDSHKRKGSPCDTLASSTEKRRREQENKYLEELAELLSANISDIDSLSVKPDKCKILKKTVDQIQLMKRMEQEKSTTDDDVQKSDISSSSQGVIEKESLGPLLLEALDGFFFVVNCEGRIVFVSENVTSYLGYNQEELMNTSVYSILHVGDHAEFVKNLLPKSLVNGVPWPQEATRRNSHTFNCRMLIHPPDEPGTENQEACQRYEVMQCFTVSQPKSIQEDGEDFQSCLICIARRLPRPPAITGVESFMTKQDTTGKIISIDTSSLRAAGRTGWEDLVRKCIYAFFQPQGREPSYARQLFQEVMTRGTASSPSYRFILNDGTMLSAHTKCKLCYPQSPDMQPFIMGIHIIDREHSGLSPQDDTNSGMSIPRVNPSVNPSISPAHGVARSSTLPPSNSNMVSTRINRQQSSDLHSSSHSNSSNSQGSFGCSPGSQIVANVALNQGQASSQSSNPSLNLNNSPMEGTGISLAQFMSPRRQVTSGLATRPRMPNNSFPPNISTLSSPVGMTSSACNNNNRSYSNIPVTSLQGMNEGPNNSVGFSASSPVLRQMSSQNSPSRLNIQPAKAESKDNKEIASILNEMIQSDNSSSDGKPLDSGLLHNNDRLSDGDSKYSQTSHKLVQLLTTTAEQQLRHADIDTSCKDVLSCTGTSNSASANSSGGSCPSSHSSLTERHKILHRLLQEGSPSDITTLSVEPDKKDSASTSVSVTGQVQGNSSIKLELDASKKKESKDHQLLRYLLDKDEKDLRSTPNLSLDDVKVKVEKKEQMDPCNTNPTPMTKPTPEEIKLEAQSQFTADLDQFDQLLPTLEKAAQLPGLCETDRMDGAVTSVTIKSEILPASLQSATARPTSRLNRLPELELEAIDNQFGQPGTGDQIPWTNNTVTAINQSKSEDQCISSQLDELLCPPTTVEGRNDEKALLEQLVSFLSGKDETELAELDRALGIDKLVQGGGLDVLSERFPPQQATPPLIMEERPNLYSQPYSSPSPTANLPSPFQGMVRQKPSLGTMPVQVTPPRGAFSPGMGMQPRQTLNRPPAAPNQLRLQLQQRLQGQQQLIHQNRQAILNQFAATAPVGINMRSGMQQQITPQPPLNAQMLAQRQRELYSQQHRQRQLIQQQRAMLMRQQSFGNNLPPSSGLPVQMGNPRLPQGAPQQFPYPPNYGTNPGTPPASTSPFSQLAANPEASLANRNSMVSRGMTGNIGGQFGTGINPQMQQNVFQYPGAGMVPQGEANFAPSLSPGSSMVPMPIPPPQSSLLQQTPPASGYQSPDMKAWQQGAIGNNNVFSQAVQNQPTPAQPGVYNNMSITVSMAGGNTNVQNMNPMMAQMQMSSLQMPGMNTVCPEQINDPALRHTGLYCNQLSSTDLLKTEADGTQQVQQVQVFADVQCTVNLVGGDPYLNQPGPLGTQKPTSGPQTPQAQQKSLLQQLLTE

[6] = target: Peroxisome proliferator-activated receptor gamma/Nuclear receptor coactivator 3 (Homo sapiens, UniProt P37231); assay type: functional;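 note: agonist potency for raising coactivator recruitment to the receptor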
Sequence of Peroxisome proliferator-activated receptor gamma/Nuclear receptor coactivator 3 (P37231 whole entry, the tested form may be a part): as the sequence (P37231 whole entry) above
Sequence of Peroxisome proliferator-activated receptor gamma/Nuclear receptor coactivator 3 (Q9Y6Q9 whole entry, further chain, the tested form may be a part): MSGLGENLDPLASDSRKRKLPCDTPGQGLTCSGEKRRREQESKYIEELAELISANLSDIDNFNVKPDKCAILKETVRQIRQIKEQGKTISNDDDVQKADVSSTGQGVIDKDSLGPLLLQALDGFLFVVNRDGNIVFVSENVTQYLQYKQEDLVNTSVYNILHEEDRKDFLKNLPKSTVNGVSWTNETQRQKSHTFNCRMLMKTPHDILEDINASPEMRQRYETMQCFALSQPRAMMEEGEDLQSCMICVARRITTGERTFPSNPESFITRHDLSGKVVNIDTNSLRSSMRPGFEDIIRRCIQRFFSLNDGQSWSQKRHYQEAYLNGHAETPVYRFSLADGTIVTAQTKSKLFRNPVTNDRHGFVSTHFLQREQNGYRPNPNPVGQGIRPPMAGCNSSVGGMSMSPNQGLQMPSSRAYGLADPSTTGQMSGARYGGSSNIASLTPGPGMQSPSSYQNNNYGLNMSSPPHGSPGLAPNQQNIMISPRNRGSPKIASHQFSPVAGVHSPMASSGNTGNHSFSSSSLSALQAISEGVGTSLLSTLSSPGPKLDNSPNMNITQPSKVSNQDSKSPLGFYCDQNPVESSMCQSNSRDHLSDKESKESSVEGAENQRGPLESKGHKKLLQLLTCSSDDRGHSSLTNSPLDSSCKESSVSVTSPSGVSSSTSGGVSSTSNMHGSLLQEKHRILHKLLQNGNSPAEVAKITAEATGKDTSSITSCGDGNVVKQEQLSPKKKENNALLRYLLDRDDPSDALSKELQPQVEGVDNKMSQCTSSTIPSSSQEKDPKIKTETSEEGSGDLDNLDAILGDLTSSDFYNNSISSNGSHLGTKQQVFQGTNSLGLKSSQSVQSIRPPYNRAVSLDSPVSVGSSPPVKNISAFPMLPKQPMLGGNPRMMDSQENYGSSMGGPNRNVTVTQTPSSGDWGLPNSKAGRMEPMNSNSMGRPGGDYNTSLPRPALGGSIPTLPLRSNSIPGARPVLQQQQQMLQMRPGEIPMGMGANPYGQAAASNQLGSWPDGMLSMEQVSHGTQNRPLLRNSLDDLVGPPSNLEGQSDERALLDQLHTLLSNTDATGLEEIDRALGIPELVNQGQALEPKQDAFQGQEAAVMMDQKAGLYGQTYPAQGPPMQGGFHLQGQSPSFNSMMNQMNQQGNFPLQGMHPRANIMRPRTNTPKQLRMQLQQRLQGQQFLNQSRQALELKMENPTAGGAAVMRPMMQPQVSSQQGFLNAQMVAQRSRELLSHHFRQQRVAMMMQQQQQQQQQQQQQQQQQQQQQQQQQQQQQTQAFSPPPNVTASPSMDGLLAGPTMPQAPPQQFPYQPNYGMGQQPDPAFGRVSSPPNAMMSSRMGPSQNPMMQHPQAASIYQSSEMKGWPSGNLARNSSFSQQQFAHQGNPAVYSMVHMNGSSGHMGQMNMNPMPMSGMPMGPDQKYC

Fatty acid synthase = Fatty acid synthase (Homo sapiens, UniProt P49327); assay: FAS thioesterase domain inhibitors, dose response, biochemical, kinetic fluorescence intensity (AID 624326); assay type: functional;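 note: rate of fluorescence rise from hydrolysis of a fluorogenic O-methyl fluorescein ester substrate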
[7] = target: T2, Carboxy-terminal domain RNA polymerase II polypeptide A small phosphatase 1 (Homo sapiens, UniProt Q9GZU7); assay: inhibitors of CTDSP1, concentration-response testing, biochemical assay, absorbance-based, actives from ultra-high-throughput screening (AID 540297); assay type: functional
T2 sequence (Q9GZU7 whole entry): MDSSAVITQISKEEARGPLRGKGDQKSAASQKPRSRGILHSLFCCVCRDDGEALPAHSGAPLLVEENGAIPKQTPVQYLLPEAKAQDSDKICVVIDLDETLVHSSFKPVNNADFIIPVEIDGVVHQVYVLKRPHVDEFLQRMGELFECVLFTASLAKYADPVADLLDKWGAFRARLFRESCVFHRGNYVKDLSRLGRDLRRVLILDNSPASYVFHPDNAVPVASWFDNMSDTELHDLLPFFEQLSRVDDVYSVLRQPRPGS

[8] = target: FAD-linked sulfhydryl oxidase ALR (Homo sapiens, UniProt P55789); assay: inhibitors of human ALR sulfhydryl oxidase, dose response, biochemical, H2O2 detection, luminescence, cherry-pick (AID 493248)
Sequence of FAD-linked sulfhydryl oxidase ALR (P55789 whole entry): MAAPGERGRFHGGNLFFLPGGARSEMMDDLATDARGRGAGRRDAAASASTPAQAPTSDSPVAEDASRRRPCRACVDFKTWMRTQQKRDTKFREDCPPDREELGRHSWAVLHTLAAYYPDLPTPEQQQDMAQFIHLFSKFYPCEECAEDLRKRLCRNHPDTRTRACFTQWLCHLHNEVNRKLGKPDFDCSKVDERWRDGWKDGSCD

P388/ADR = assay: cells; assay type: functional; details: Mus musculus
SN12K1 = assay: cells; assay type: functional; details: Homo sapiens
Streptococcus = assay: Group A Streptococcus viability loss, dose response, counter-screen for streptokinase expression inhibitor project, luminescence, BacTiterGlo (AID 1915); assay type: functional, organism-based;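 note: potency for reduction of bacterial viability or growth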
Streptokinase A = target: T3, Streptokinase A (Streptococcus pyogenes serotype M1, UniProt P10520); assay: S. pyogenes streptokinase expression inhibitors, potency, dose response, plasminogen activation absorbance, OD405 (AID 1914); assay type: functional, Streptococcus pyogenes M1 GAS;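 note: secreted streptokinase activity via plasminogen activation per viability signal from cell pellet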
T3 sequence (P10520 whole entry): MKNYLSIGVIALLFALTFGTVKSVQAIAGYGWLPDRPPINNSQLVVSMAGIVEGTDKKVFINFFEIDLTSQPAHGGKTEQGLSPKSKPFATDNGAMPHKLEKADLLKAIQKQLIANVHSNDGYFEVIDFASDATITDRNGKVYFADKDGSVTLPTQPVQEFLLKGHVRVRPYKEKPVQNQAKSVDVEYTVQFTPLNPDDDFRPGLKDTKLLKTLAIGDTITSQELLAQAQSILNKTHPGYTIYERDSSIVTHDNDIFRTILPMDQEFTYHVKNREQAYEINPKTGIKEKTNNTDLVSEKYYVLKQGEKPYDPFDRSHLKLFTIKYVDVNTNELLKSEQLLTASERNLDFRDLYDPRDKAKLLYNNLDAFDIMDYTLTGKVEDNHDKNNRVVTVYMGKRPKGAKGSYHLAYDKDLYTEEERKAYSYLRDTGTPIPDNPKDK

Nonstructural protein 1 = Nonstructural protein 1 (Influenza A virus, UniProt Q194T2); assay type: functional, Influenza A virus (A/California/07/2009(H1N1))
Sequence of Nonstructural protein 1 (Q194T2 whole entry): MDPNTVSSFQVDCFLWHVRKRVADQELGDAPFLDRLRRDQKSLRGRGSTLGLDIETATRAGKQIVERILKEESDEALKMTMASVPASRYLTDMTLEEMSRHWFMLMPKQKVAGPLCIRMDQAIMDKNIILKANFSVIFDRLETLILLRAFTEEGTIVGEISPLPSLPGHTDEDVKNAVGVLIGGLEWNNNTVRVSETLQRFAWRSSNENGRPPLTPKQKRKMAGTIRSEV

[9] = test system: Streptococcus sp. 'group A'; assay: growth inhibition of control SK(-) GAS strain, dose response, counter-screen for streptokinase expression inhibitor project, luminescence, kanamycin, BacTiterGlo, confirmation (AID 1900); assay type: functional, organism-based
[10] = HEp-2 cell cytotoxicity, dose response, cytotoxicity control for RSV inhibitor project, HTS (AID 2410); assay type: functional; details: human respiratory syncytial virus

With O=S(=O)(NCc1ccncc1)c1ccc(F)c(F)c1 the AC50 [1] was 54.7 µM (active), the AC50 [2] was 2.09 µM (active) and the AC50 [3] was 1.2 µM (active).

For Cc1ccc2oc(=O)c3cc(C(=O)NCCCN4CCCC(C)C4)sc3c2c1 (stereo not given), the CC50 (Vero) was > 25 µM (active).

For COc1ccccc1C(=O)Nc1ccc(Br)c2cccnc12, the IC50 (Protein skinhead-1) was > 100 µM (inactive).

For CSc1ccc(Cl)c(C(=O)NCc2ccco2)c1, the IC50 (Protein skinhead-1) was > 100 µM (inactive).

In the case of COC(=O)c1cnn(-c2nc3c(C)cccc3s2)c1C, the EC50 [4] is reported as 30 µM (not active), the EC50 [5] is reported as 54.5 µM (not active) and the EC50 [6] is reported as 67 µM (not active).

With CCc1nc2c(OCc3ccc(C(F)(F)F)cc3)cccn2c1N(C=O)Cc1ccc(OC)cc1 the IC50 (Fatty acid synthase) was 9.21 µM (active).

In the case of Cc1ccc(S(=O)(=O)NC(=O)COc2ccccc2)cc1, the EC50 [4] is reported as > 79.4 µM (not active), the EC50 [5] is reported as > 79.4 µM (not active) and the EC50 [6] is reported as > 79.4 µM (not active).

With COc1ccc(S(=O)(=O)N(C)C)cc1NC(=O)C1CCN(c2ncnc3sc(C)c(C)c23)CC1 the AC50 [1] was > 70 µM (inactive), the AC50 [2] was 9.21 µM (active) and the AC50 [3] was 18.9 µM (active).

For O=C(OCc1nnc(-c2ccccc2)o1)c1ccc(S(=O)(=O)NCc2ccco2)cc1, the IC50 [7] was 13.4 µM (active).

With c1coc(CN(Cc2ccco2)c2ncnc3c2oc2ccccc23)c1 the AC50 [1] was 67 µM (active), the AC50 [2] was 5.45 µM (active) and the AC50 [3] was 3.94 µM (active).

In the case of COC(=O)/C=C/S(=O)(=O)c1ccc(NC(C)=O)cc1, the AC50 [1] is reported as 42.2 µM (active), the AC50 [2] is reported as 7.3 µM (active) and the AC50 [3] is reported as 14.2 µM (active). For the same molecule, the AC50 [8] was 0.118 µM (active).

For N#C/C(=C/c1ccc(OC(=O)c2ccc(Br)s2)cc1)c1nc2ccccc2[nH]1, the IC50 [7] was 1.82 µM (active).

For Cn1c(=O)n(C)c2cc(/C=C(/C#N)C(=O)NCc3ccco3)ccc21, the IC50 (Protein skinhead-1) was > 100 µM (inactive).

For O=C(N/N=C/c1cc(Br)c(Br)o1)c1cc2ccccc2o1, the IC50 [7] was 5.65 µM (active).

In the case of CC(=O)Oc1c(OC(C)=O)c(-c2ccc(O)c(O)c2)c(O)c(O)c1-c1ccc(O)cc1, the GI50 (P388/ADR) is reported as 20.7 µM (inactive) and the GI50 (SN12K1) is reported as > 100 µM (inactive).

With O=C1C(NS(=O)(=O)c2cccs2)=C(N2CCN(c3cccc(C(F)(F)F)c3)CC2)C(=O)c2ccccc21 the EC50 (Streptococcus) was 13.5 µM (active), the EC50 (Streptokinase A) was > 150 µM (not active) and the IC50 (Nonstructural protein 1) was 19.6 µM (active). The EC50 [9] was 7.31 µM (active) and the CC50 [10] was 12.4 µM (active).

In the case of Cc1csc(NC(=O)CSc2sc3c(O)cc(O)nc3c2C#N)n1, the IC50 [7] is reported as 5.14 µM (active).
